Reference: publication PMC4526861, “Inhibition of protein kinase C by isojacareubin suppresses hepatocellular carcinoma metastasis and induces apoptosis in vitro and in vivo” (Scientific Reports, 2015)

Legend:
QSG-7701 hepatocytes = test: Cell proliferation assay (CCK-8), QSG-7701 hepatocytes; assay type: cell-based, human; conditions: nonmalignant hepatocytes; mean ± SD
Method: The human HCC cell lines QGY-7703, SMMC-7721 and HepG2 and the liver cell line QSG-7701 were supplied by the Cell Resource Center, Institute of Life Sciences, Chinese Academy of Medical Science. QGY-7703, SMMC-7721 and QSG-7701 cells were cultured in 1640 medium (Gibco), and HepG2 cells were cultured in DMEM medium (Gibco) at 37 °C in moist air supplemented with 5% CO2. All media were supplemented with 10% fetal bovine serum (FBS) and 100 Units/mL of penicillin/streptomycin.
The cell viability assay was performed as previously reported using a Cell Counting Kit-8 (CCK-8; Dojindo, Kumamoto, Japan)[33][34]. The relative cell viability was presented as % inhibition and calculated using the following formula: […]

PKCζ = test: Western blot of PKC isoform expression in cytosol and membrane; assay type: cell-based, human; conditions: HepG2, 24 h incubation
Method: To further determine whether compound 7 and ISJ represent potential candidates for selective PKC expression inhibitors against hepatoma, the expression of PKC isoforms in HepG2 cells was characterized by western blotting. After 24 h of incubation with GFX, GO, ISJ and compound 7 at the indicated concentrations, PKC proteins from the cytosol and membrane of HepG2 cells were evaluated. ISJ and compound 7 treatments reduced both the cytosol and cell membrane expression of PKCζ.
The total membrane and cytosolic proteins were extracted using a Membrane and Cytosol Protein Extraction Kit (Beyotime). Extracted proteins from cells or animal tissues were separated by SDS-PAGE and transferred to polyvinylidene difluoride (PVDF) membranes (Bio-Rad). The PVDF membranes were blocked with 5% nonfat milk and incubated with primary antibodies overnight, followed by incubation with a donkey anti-rabbit or anti-mouse secondary antibody (IRDye 800, LI-COR, Biosciences). The images were captured using the Odyssey Infrared Imaging System (LI-COR, Biosciences), according to the manufacturer's instructions. The intensity was quantitative with Quantity One software (Bio-Rad). To ensure equal protein loading, each membrane was stripped and reprobed with an anti-β-actin antibody. All experiments were repeated independently no less than three times.

PKCε = biological target: T1, PKCε (Homo sapiens, UniProt Q02156); test: Cell-based pull-down assay, PKCε; assay type: binding; conditions: HepG2 lysates
T1 construct: Endogenous cPKC (PKCα) and nPKC (PKCδ, PKCε and PKCμ) in HepG2 lysates were pulled down; endogenous in cells; host or cells: HepG2
T1 sequence (Q02156 1-737): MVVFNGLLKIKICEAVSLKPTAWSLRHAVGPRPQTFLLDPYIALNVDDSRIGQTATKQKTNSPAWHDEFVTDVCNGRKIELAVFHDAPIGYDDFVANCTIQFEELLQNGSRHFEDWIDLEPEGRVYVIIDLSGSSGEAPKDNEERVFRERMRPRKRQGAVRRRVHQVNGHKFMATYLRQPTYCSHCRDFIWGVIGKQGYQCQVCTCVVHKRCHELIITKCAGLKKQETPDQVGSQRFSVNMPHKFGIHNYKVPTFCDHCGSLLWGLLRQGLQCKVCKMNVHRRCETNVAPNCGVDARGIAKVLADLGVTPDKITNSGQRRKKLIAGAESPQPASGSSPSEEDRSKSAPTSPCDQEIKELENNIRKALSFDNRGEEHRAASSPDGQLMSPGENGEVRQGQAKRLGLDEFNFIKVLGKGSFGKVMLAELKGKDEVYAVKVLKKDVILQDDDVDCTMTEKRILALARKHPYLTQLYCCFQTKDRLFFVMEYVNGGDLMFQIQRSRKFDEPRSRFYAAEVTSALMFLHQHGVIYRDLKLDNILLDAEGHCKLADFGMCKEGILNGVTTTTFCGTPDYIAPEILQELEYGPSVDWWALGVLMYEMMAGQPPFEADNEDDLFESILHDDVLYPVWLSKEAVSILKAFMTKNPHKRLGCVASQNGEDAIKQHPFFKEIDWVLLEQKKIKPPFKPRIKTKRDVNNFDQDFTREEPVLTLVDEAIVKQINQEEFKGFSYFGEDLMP
Method: (§1) To identify whether ISJ and compound 7 target PKC in cells, we performed pull-down experiments using ISJ- and compound 7-coupled Sepharose beads with HepG2 cell lysates. Endogenous cPKC (PKCα) and nPKC (PKCδ, PKCε and PKCμ) in HepG2 lysates were pulled down by ISJ-coupled CNBr-activated Sepharose 4B beads (Fig. 5a).
(§2) The control beads were prepared by incubating the beads with DMSO. Proteins (500 μg) from lysed HepG2 cells were mixed with either the control beads, compound 7-coupled beads, or ISJ-coupled beads (100 μL) in reaction buffer [50 mM Tris (pH 7.5), 5 mM EDTA, 150 mM NaCl, 1 mM DTT, 0.01% NP-40, 2 μg/mL BSA, 1 mM PMSF, 1% protease inhibitor mixture]. After incubation with gentle rocking overnight at 4 °C, the beads were washed 5 times with washing buffer [50 mM Tris (pH 7.5), 5 mM EDTA, 150 mM NaCl, 1 mM DTT, 0.01% NP-40, 1 mM PMSF], and binding was visualized by western blotting.

cPKC and nPKC = test: Pull-down competition with free ISJ; assay type: binding, human; conditions: free ISJ 20 μM, HepG2 lysates
Source text: as §1
Figure 5 Direct interactions between ISJ and PKC isotypes. (a) Immobilized on CNBr-activated Sepharose 4B beads, ISJ directly bound to cPKC (PKCα) and nPKC (PKCδ, PKCε and PKCμ). (b) HepG2 cell lysates were incubated with ISJ-conjugated Sepharose 4B beads or with DMSO-conjugated control beads in the absence or presence of free ISJ (20 μM), and the bead-captured proteins were subjected to analysis by immunoblotting.
as §2

c-PARP, p53 and p21 = test: Western blot of apoptotic proteins, HepG2; assay type: cell-based, human; conditions: HepG2, 24 h
Method: Additional PKC targeting effects involved in the early response of major MAPK phosphorylation and the late response of HCC cell invasion and apoptosis were investigated. After 24 h of treatment with ISJ at the indicated concentrations, the total protein lysates from HCC cells were analyzed (Fig. 6). ISJ inhibited the phosphorylated, activated forms of c-Raf, MEK1/2 and ERK1/2 in the MAPK signaling pathway in both HepG2 and QGY-7703 cells (Fig. 6a). […] In contrast, E-cadherin expression was elevated, specifically at the highest concentration of ISJ (20 μM) (Fig. 6b). In addition, we analyzed several representative apoptotic proteins, including cleaved PARP (c-PARP), p53 and p21. […] These findings support our hypothesis that ISJ restrains HCC cell metastasis and induces HCC cell apoptosis by specifically inhibiting PKC.
The total membrane and cytosolic proteins were extracted using a Membrane and Cytosol Protein Extraction Kit (Beyotime). Extracted proteins from cells or animal tissues were separated by SDS-PAGE and transferred to polyvinylidene difluoride (PVDF) membranes (Bio-Rad). The PVDF membranes were blocked with 5% nonfat milk and incubated with primary antibodies overnight, followed by incubation with a donkey anti-rabbit or anti-mouse secondary antibody (IRDye 800, LI-COR, Biosciences). […] The intensity was quantitative with Quantity One software (Bio-Rad). […]

HeLa-C3 cells = test system: HeLa-C3 cells; design: method as in PMID 18614188; conditions: cited from earlier work

Isojacareubin [ISJ]
IC50 (QSG-7701 hepatocytes): 47.67 ± 0.08 µM | PKCζ expression in cytosol and cell membrane (PKCζ): significantly decreased | pull-down of endogenous PKCε by compound-coupled Sepharose 4B beads (PKCε): pulled down | amounts of cPKC and nPKC captured by ISJ-coupled 4B beads in presence of free compound (cPKC and nPKC): obvious decline | expression levels of c-PARP, p53 and p21 (c-PARP, p53 and p21): increased | growth of HeLa-C3 cells (HeLa-C3 cells): inhibited the growth
